Reference: patent publication US20250129044A1 (priority 2021, published 2025)

biological target: sodium channel isoforms (Homo sapiens, UniProt P35498); format: cell-based; settings: area under the sodium current trace, step from −120 mV to 0 mV, HEK cells
Description: The sodium channel isoforms of interest are stably expressed in Human Embryonic Kidney Cells and the currents that flow through those channels in response to a depolarizing voltage clamp step from −120 mV to 0 mV are measured in the presence of increasing concentrations of the chemical agents. The area under the sodium current trace which correlates to the magnitude of sodium flux through the cell membrane is used to quantify the effects on gating of the channels. Other parameters that are measured in the assay include the peak current, time constant of open state inactivation and the voltage dependence of steady state inactivation properties. The concentration responses are used to determine potency of each chemical agents effects on modulating the sodium channel isoform gating. Such techniques are known to those skilled in the art, and may be developed, using current technologies, into low or medium throughput assays for evaluating compounds for their ability to modulate sodium channel behaviour.

| Compound | Empirical Emax | EC50 |
| --- | --- | --- |
| CC(C)c1ncc(C(=O)Nc2c(-c3ccccc3F)ccnc2C2CC(F)(F)CCN2C(=O)OC(C)(C)C)cn1 (centres unmarked) [Example 20, tert-butyl 4,4-difluoro-2-[4-(2-fluorophenyl)-3-[(2-isopropylpyrimidine-5-carbonyl)amino]-2-pyridyl]piperidine-1-carboxylate] | + (+ indicates a value less than 2.0 μM) | – |
| CC(C)c1ncc(C(=O)Nc2c(-c3ccccc3F)ccnc2[C@H]2CC[C@](O)(C(F)(F)F)CC2)cn1 [Example 21, N-[4-(2-fluorophenyl)-2-[4-hydroxy-4-(trifluoromethyl)cyclohexyl]-3-pyridyl]-2-isopropyl-pyrimidine-5-carboxamide] | + (+ indicates a value less than 2.0 μM) | – |
| CC(C)c1ncc(C(=O)Nc2c(-c3ccccc3F)ccnc2C2CC3(C2)CC3(F)F)cn1 (centres unmarked) [Example 22, N-[2-(2,2-difluorospiro[2.3]hexan-5-yl)-4-(2-fluorophenyl)-3-pyridyl]-2-isopropyl-pyrimidine-5-carboxamide] | +++ (+++ indicates a value from 5.0 up to 7.5 μM) | – |
| CC(C)c1ncc(C(=O)Nc2c(-c3ccccc3F)ccnc2C2C[C@@H]3[C@H](C2)C3(F)F)cn1 (stereo partly drawn) [Example 23, N-[2-[(1R,5S)-6,6-difluoro-3-bicyclo[3.1.0]hexanyl]-4-(2-fluorophenyl)-3-pyridyl]-2-isopropyl-pyrimidine-5-carboxamide] | ++++ (++++ indicates a value greater than 7.5) | – |
| CC(C)c1ncc(C(=O)Nc2c(-c3ccccc3F)ccnc2C2CCC(F)(F)C2)cn1 (centres unmarked) [Example 24, N-[2-(3,3-difluorocyclopentyl)-4-(2-fluorophenyl)-3-pyridyl]-2-isopropyl-pyrimidine-5-carboxamide] | ++++ (++++ indicates a value greater than 7.5) | – |
| CC(C)c1ncc(C(=O)Nc2c(-c3ccccc3F)ccnc2C2CCCC(F)(F)C2)cn1 (centres unmarked) [Example 26, N-[2-(3,3-difluorocyclohexyl)-4-(2-fluorophenyl)-3-pyridyl]-2-isopropyl-pyrimidine-5-carboxamide] | +++ (+++ indicates a value from 5.0 up to 7.5 μM) | – |
| CC(C)c1ncc(C(=O)Nc2c(-c3ccccc3F)ccnc2C2CCC3(C2)CC3(F)F)cn1 (centres unmarked) [Example 27, N-[2-(2,2-difluorospiro[2.4]heptan-6-yl)-4-(2-fluorophenyl)-3-pyridyl]-2-isopropyl-pyrimidine-5-carboxamide] | +++ (+++ indicates a value from 5.0 up to 7.5 μM) | – |
| CC(C)c1ncc(C(=O)Nc2c(-c3ccccc3F)ccnc2C2CCC3(CC2)CC3)cn1 [Example 28, N-[4-(2-fluorophenyl)-2-spiro[2.5]octan-6-yl-3-pyridyl]-2-isopropyl-pyrimidine-5-carboxamide] | ++ (++ indicates a value from 2.0 up to 5.0 μM) | – |
| CC(C)c1ncc(C(=O)Nc2c(-c3ccccc3F)ccnc2[C@H]2CC[C@@H](C(F)(F)F)CC2)cn1 [Example 29, N-[4-(2-fluorophenyl)-2-[4-(trifluoromethyl)cyclohexyl]-3-pyridyl]-2-isopropyl-pyrimidine-5-carboxamide] | + (+ indicates a value less than 2.0 μM) | – |
| CC(C)c1ncc(C(=O)Nc2c(-c3ccccc3F)ccnc2[C@H]2CC[C@H](C(F)(F)F)CC2)cn1 [Example 30, N-[4-(2-fluorophenyl)-2-[4-(trifluoromethyl)cyclohexyl]-3-pyridyl]-2-isopropyl-pyrimidine-5-carboxamide] | ++ (++ indicates a value from 2.0 up to 5.0 μM) | – |
| CC(C)c1ncc(C(=O)Nc2c(-c3ccccc3F)ccnc2C2CC(F)(F)CN2C(=O)OC(C)(C)C)cn1 (centres unmarked) [Example 31, tert-butyl 4,4-difluoro-2-[4-(2-fluorophenyl)-3-[(2-isopropylpyrimidine-5-carbonyl)amino]-2-pyridyl]pyrrolidine-1-carboxylate] | + (+ indicates a value less than 2.0 μM) | – |
| CC(C)c1ncc(C(=O)Nc2c(-c3ccccc3F)ccnc2C2CC(F)(F)C2)cn1 [Example 32, N-(2-(3,3-difluorocyclobutyl)-4-(2-fluorophenyl)pyridin-3-yl)-2-isopropylpyrimidine-5-carboxamide] | +++ (+++ indicates a value from 5.0 up to 7.5 μM) | – |
| CC(C)c1ncc(C(=O)Nc2c(-c3ccccc3F)ccnc2[C@H]2CC[C@@H](F)CC2)cn1 [Example 33] | +++ (+++ indicates a value from 5.0 up to 7.5 μM) | – |
| CC(C)c1ncc(C(=O)Nc2c(-c3ccccc3F)ccnc2[C@H]2CC[C@H](F)CC2)cn1 [Example 34] | +++ (+++ indicates a value from 5.0 up to 7.5 μM) | – |
| CC(C)c1ncc(C(=O)Nc2c(-c3ccccc3F)ccnc2C2CC(C(F)(F)F)C2)cn1 (centres unmarked) [Example 35, N-(4-(2-fluorophenyl)-2-(3-(trifluoromethyl)cyclobutyl)pyridin-3-yl)-2-isopropylpyrimidine-5-carboxamide] | +++ (+++ indicates a value from 5.0 up to 7.5 μM) | – |
| CC(C)c1ncc(C(=O)Nc2c(-c3ccccc3F)ccnc2C2CC3(COC3)C2)cn1 [Example 36, N-(4-(2-fluorophenyl)-2-(2-oxaspiro[3.3]heptan-6-yl)pyridin-3-yl)-2-isopropylpyrimidine-5-carboxamide] | +++ (+++ indicates a value from 5.0 up to 7.5 μM) | – |

| Compound | Empirical Emax | EC50 |
| --- | --- | --- |
| CO[C@H]1CC[C@@H](c2nccc(-c3ccccc3F)c2NC(=O)c2cnc(C(C)C)nc2)CC1 [Example 38] | + (+ indicates a value less than 2.0 μM) | – |
| CO[C@H]1CC[C@H](c2nccc(-c3ccccc3F)c2NC(=O)c2cnc(C(C)C)nc2)CC1 [Example 39] | + (+ indicates a value less than 2.0 μM) | – |
| CC(C)c1ncc(C(=O)Nc2c(-c3ccccc3)ccnc2C2CCCN2)cn1 (centres unmarked) [Example 40, 2-isopropyl-N-(4-phenyl-2-(pyrrolidin-2-yl)pyridin-3-yl)pyrimidine-5-carboxamide] | + (+ indicates a value less than 2.0 μM) | – |
| C1=C(c2nccc(-c3ccccc3)c2-c2nc3c([nH]2)COCC3)CCOC1 [Example 44, 2-(2-(3,6-dihydro-2H-pyran-4-yl)-4-phenylpyridin-3-yl)-3,4,6,7-tetrahydropyrano[3,4-d]imidazole] | + (+ indicates a value less than 2.0 μM) | – |
| c1ccc(-c2ccnc(C3CCOCC3)c2-c2nc3c([nH]2)COCC3)cc1 [Example 45, 2-(4-phenyl-2-(tetrahydro-2H-pyran-4-yl)pyridin-3-yl)-3,4,6,7-tetrahydropyrano[3,4-d]imidazole] | + (+ indicates a value less than 2.0 μM) | – |
| FC1(F)CCC(c2nccc(-c3ccccc3)c2-c2nc3c([nH]2)COCC3)CC1 [Example 46, 2-(2-(4,4-difluorocyclohexyl)-4-phenylpyridin-3-yl)-3,4,6,7-tetrahydropyrano[3,4-d]imidazole] | +++ (+++ indicates a value from 5.0 up to 7.5 μM) | – |
| Fc1ccc(F)c(-c2ccnc(C3CCC(F)(F)CC3)c2-c2nc3c([nH]2)COCC3)c1 [Example 47, 2-(2-(4,4-difluorocyclohexyl)-4-(2,5-difluorophenyl)pyridin-3-yl)-3,4,6,7-tetrahydropyrano[3,4-d]imidazole] | +++ (+++ indicates a value from 5.0 up to 7.5 μM) | – |
| Fc1ccc(F)c(-c2ccnc(C3CCC(F)(F)C3)c2-c2nc3c([nH]2)COCC3)c1 (centres unmarked) [Example 48, 2-(2-(3,3-difluorocyclopentyl)-4-(2,5-difluorophenyl)pyridin-3-yl)-3,4,6,7-tetrahydropyrano[3,4-d]imidazole] | +++ (+++ indicates a value from 5.0 up to 7.5 μM) | – |
| O=C(Nc1ccc(Cl)nc1)c1c(-c2ccccc2F)ccnc1C1CCCC1 [Example 49, N-(6-chloropyridin-3-yl)-2-cyclopentyl-4-(2-fluorophenyl)nicotinamide] | + (+ indicates a value less than 2.0 μM) | – |
| O=C(Nc1ccc(Cl)nc1)c1c(-c2ccccc2F)ccnc1C1=CCCC1 [Example 50, N-(6-chloropyridin-3-yl)-2-(cyclopent-1-en-1-yl)-4-(2-fluorophenyl)nicotinamide] | + (+ indicates a value less than 2.0 μM) | – |
| O=C(Nc1ccc(Cl)nc1)c1c(-c2ccccc2F)ccnc1C1=CCOCC1 [Example 51] | + (+ indicates a value less than 2.0 μM) | – |
| CC(C)c1ccc(NC(=O)c2c(-c3ccccc3F)ccnc2C2=CCOCC2)cn1 [Example 52] | + (+ indicates a value less than 2.0 μM) | – |
| CC(C)c1ccc(NC(=O)c2c(-c3ccccc3F)ccnc2C2CCOCC2)cn1 [Example 53, 4-(2-fluorophenyl)-N-(6-isopropylpyridin-3-yl)-2-(tetrahydro-2H-pyran-4-yl)nicotinamide] | ++ (++ indicates a value from 2.0 up to 5.0 μM) | – |
| CC(C)c1ncc(C(=O)Nc2c(C3=CCCCO3)ccnc2C2CCC(F)(F)CC2)cn1 [Example 54, N-(2-(4,4-difluorocyclohexyl)-4-(3,4-dihydro-2H-pyran-6-yl)pyridin-3-yl)-2-isopropylpyrimidine-5-carboxamide] | ++++ (++++ indicates a value greater than 7.5) | – |
| CC(C)c1ncc(C(=O)Nc2c(-c3ccccn3)ccnc2C2CCC(F)(F)CC2)cn1 [Example 55, N-(2′-(4,4-difluorocyclohexyl)-[2,4′-bipyridin]-3′-yl)-2-isopropylpyrimidine-5-carboxamide] | +++ (+++ indicates a value from 5.0 up to 7.5 μM) | – |
| O=C(Nc1c(-c2cc(F)ccc2F)ccnc1C1CCC(F)(F)CC1)c1cnc(N2C3CCC2COC3)nc1 [Example 159, 2-(3-oxa-8-azabicyclo[3.2.1]octan-8-yl)-N-(2-(4,4-difluorocyclohexyl)-4-(2,5-difluorophenyl)pyridin-3-yl)pyrimidine-5-carboxamide] | – | < 1000 nM |
